# Measurements published in the NIST ThermoML archive (doi:10.1021/acs.jced.8b00168).
# Values joined by “and” are separate entries in the source; they are usually repeats but may differ in a detail not shown here. Identical values can stand only once. ± gives the expanded uncertainty stated by the source.
# Key:
# [1] = Liquid, DSC
# [2] = Boiling temperature at pressure P; settings: Liquid, DSC
smiles,measurement,setting,value
CCCCCCCCCCCCCCCCCCCCCCCCCCCC [octacosane],vapor or sublimation pressure,[1]; 550.62 K,1.7 ± 0.17 kPa
"CCCC(=O)OCC(COC(=O)CCC)OC(=O)CCC [1,2,3-propanetriyl tributanoate]",vapor or sublimation pressure,[1]; 459.56 K,1.69 ± 0.19 kPa
CCCCCCCCCCCCCCCCO [1-hexadecanol],vapor or sublimation pressure,[1]; 462.29 K,1.73 ± 0.17 kPa and 1.72 ± 0.17 kPa
CCCCCCCCCCCCCCCCCCO [1-octadecanol],vapor or sublimation pressure,[1]; 483.46 K,1.73 ± 0.19 kPa
CCCCCCCCC(=O)OCC(CO)OC(=O)CCCCCCCC (configuration not stated) [dinonanoin],vapor or sublimation pressure,[1]; 532.03 K,1.7 ± 0.19 kPa
same,Boiling temperature at pressure P,[2]; 0.54 kPa,231.07 ± 2.4 °C
same,Boiling temperature at pressure P,[2]; 1.42 kPa,253.1 ± 3.1 °C
same,Boiling temperature at pressure P,[2]; 1.74 kPa,258.40 ± 2.4 °C
same,Boiling temperature at pressure P,[2]; 2.14 kPa,263.86 ± 2.6 °C
same,Boiling temperature at pressure P,[2]; 2.63 kPa,269.97 ± 2.8 °C
"CCCCCCCCC(=O)OCC(O)CO (configuration not stated) [2,3-dihydroxypropyl nonanoate]",vapor or sublimation pressure,[1]; 478.88 K,1.69 ± 0.19 kPa
CCCCCCCCCCCCCC(=O)OC [methyl tetradecanoate],vapor or sublimation pressure,[1]; 437.72 K,1.72 ± 0.19 kPa
